This passage reports TGI and GI50 results from PubChem BioAssay (NCI).

Each structure is given as a SMILES string. Values joined by “and” are separate entries in the source; they are usually repeats but may differ in a detail not shown here. Equal entries are not always repeated.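 The compound was tested at five concentrations on cells cultured in 96-well plates, with a 48-hour exposure period. GI50 is the concentration that inhibits growth by half. The concentration for full growth arrest is given as TGI.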

Some test systems named below: MALME-3M melanoma; BT-549 breast; HT29 colon; NCI-H460 lung; HOP-62 NSCLC; NCI-H23 lung; 786-0 renal; SK-MEL-2 melanoma; NCI-H226 lung; CCRF-CEM leukemia.
Common to all, as to assay: growth of human tumour cells (NCI), 48 h

In the case of `C/C=C\C(CC(=O)NCCC1CN(C(=O)c2ccccc2)c2ccccc21)CC(=O)OC` (stereo unspecified), the TGI with MALME-3M melanoma, in the experiment with BT-549 breast, in the experiment with HT29 colon, in the experiment on NCI-H460 lung, with HOP-62 NSCLC and with NCI-H23 lung was over 100 µM each time. Further, the TGI with 786-0 renal and with SK-MEL-2 melanoma was over 100 µM throughout.

`COc1cc(C2S/C(=C/c3ccccc3)C(=O)N2c2cccc([N+](=O)[O-])c2)cc(OC)c1OC` (stereo unspecified): the TGI in the experiment on MALME-3M melanoma, with BT-549 breast, in the experiment on HT29 colon, with HOP-62 NSCLC, in the experiment on NCI-H23 lung and with 786-0 renal was over 100 µM throughout. The TGI in the experiment on SK-MEL-2 melanoma is 67.9 µM; in the experiment with NCI-H226 lung, over 100 µM.

`CCOC(=O)C(=Cn1c(=S)[nH]c2ccc([N+](=O)[O-])cc21)C(=O)OCC`: the TGI in the experiment with MALME-3M melanoma, with HT29 colon, in the experiment on NCI-H460 lung, in the experiment with CCRF-CEM leukemia, with HOP-62 NSCLC and in the experiment with NCI-H23 lung was over 100 µM throughout. The TGI in the experiment with 786-0 renal, with SK-MEL-2 melanoma and in the experiment on NCI-H226 lung was over 100 µM in each case.

As for `COc1cc(-c2nc3nc(N4CCN(C)CC4)ccc3[nH]2)c(OC)c2[nH]c(COC(C)=O)nc12`, the TGI was 67.9 µM in the experiment with MALME-3M melanoma; over 100 µM in the experiment on BT-549 breast; 61.8 µM in the experiment with HT29 colon; 99.3 µM with NCI-H460 lung; over 100 µM in the experiment with HOP-62 NSCLC; over 100 µM in the experiment with NCI-H23 lung. The TGI stood at 72.4 µM with 786-0 renal and 47.4 µM in the experiment on SK-MEL-2 melanoma.

Regarding `O=C(O)/C=C/C(=O)O`, the TGI in the experiment with MALME-3M melanoma, in the experiment on HT29 colon, in the experiment with NCI-H460 lung, in the experiment on CCRF-CEM leukemia, in the experiment with HOP-62 NSCLC and in the experiment with NCI-H23 lung was over 100 µM each time. For the same compound, the TGI in the experiment on 786-0 renal, in the experiment on SK-MEL-2 melanoma and in the experiment with NCI-H226 lung was over 100 µM in each case.

On to `COC(=O)n1c(CBr)c(Br)c2ccccc21`, for which the TGI in the experiment with MALME-3M melanoma was over 100 µM; in the experiment with HT29 colon, over 100 µM; in the experiment on NCI-H460 lung, 74.9 µM; in the experiment on CCRF-CEM leukemia, 70.2 µM; with HOP-62 NSCLC, 54 µM; in the experiment on NCI-H23 lung, 71 µM. For the same compound, the TGI in the experiment on 786-0 renal was over 100 µM; in the experiment with SK-MEL-2 melanoma it was 47 µM; with NCI-H226 lung, 33.6 µM.

`O=C(/C=C/c1ccccc1O)/C=C/c1ccccc1O`: the TGI stood at 4.27 µM with MALME-3M melanoma; 3.28 µM in the experiment with BT-549 breast; 4.85 µM in the experiment on HT29 colon; 3.08 µM in the experiment on NCI-H460 lung; 5.76 µM in the experiment with HOP-62 NSCLC; 3.84 µM in the experiment with NCI-H23 lung. Moreover, the TGI with 786-0 renal stood at 3.22 µM; with SK-MEL-2 melanoma it was 23.1 µM.

Consider `CN(C)CC(NC(NCS)C(=O)NCCNc1ccc(NCCNC(=O)C(NCS)NC(CN(C)C)OCCl)c2c1C(=O)c1c(O)ccc(O)c1C2=O)OCCl` (stereo unspecified), for which the figures for the GI50 in the experiment with HT29 colon and in the experiment with NCI-H226 lung were 0.228 µM and 0.285 µM, respectively. Besides, the TGI in the experiment on HT29 colon is 0.278 µM and 1.58 µM; in the experiment on NCI-H460 lung, 0.944 µM; in the experiment on HOP-62 NSCLC, 0.482 µM; in the experiment on NCI-H23 lung, 0.111 µM; in the experiment with SK-MEL-2 melanoma, 2.99 µM; in the experiment on NCI-H226 lung, 0.418 µM and 1.61 µM.

In the case of `O=C1O[C@]2(c3ccccc3)C(c3ccccc3)=C[C@]2(C(=O)c2ccccc2)C1=O`, the TGI in the experiment on MALME-3M melanoma is over 100 µM; in the experiment on BT-549 breast, over 100 µM; with HT29 colon, over 100 µM; in the experiment with NCI-H460 lung, 71.6 µM; with HOP-62 NSCLC it was over 100 µM; with NCI-H23 lung, over 100 µM. Further, the TGI in the experiment on 786-0 renal came out at 85.7 µM; in the experiment with SK-MEL-2 melanoma, 74.6 µM; in the experiment on NCI-H226 lung, 98.6 µM.

Take `CN1CC2CC(C1)c1cccc(=O)n1C2` (stereo unspecified): the TGI in the experiment on MALME-3M melanoma, in the experiment with BT-549 breast, with HT29 colon, in the experiment with NCI-H460 lung, with HOP-62 NSCLC and in the experiment on NCI-H23 lung was over 100 µM throughout. In addition, the TGI in the experiment with 786-0 renal and with SK-MEL-2 melanoma was over 100 µM throughout.

Take `COc1ccc2c(c1)CC[C@@H]1[C@@H]2CC[C@]2(C)C(=O)/C(=C/c3cc(OC)c(OC)c(OC)c3)C[C@@H]12`: the TGI with MALME-3M melanoma was 35 µM; in the experiment with BT-549 breast it was 63.9 µM; in the experiment on NCI-H460 lung, over 100 µM; with HOP-62 NSCLC, 30.7 µM; with NCI-H23 lung, 53.3 µM; in the experiment on 786-0 renal, 39 µM. Besides, in the experiment on SK-MEL-2 melanoma, the TGI is 41.6 µM.

On to `c1ccc(C2=C(c3ccccc3)P(c3ccccc3)C2)cc1` (stereo unspecified), for which the TGI in the experiment with MALME-3M melanoma, in the experiment on HT29 colon, with NCI-H460 lung, in the experiment on CCRF-CEM leukemia, with HOP-62 NSCLC and in the experiment on 786-0 renal was over 100 µM in each case. Besides, the TGI with SK-MEL-2 melanoma and in the experiment on NCI-H226 lung was over 100 µM in each case.

`CC(C)CCC/C(CBr)=C(\Cl)CCl`: the TGI in the experiment with MALME-3M melanoma amounted to 7.88 µM; in the experiment with BT-549 breast, 3.52 µM; in the experiment on HT29 colon it was 5.97 µM; in the experiment with NCI-H460 lung it was 18.5 µM; in the experiment with HOP-62 NSCLC, 20.8 µM; in the experiment with NCI-H23 lung, 8.11 µM. Moreover, the TGI in the experiment on 786-0 renal amounted to 3.67 µM; in the experiment on SK-MEL-2 melanoma, 2.97 µM; in the experiment on NCI-H226 lung, 25.7 µM.

Regarding `CCOC12SC(=Nc3ccc(C)cc3)NN1C(=S)N(C)N=C2C` (stereo unspecified), the TGI with HT29 colon, in the experiment on NCI-H460 lung, in the experiment with CCRF-CEM leukemia, in the experiment with HOP-62 NSCLC, with NCI-H23 lung and in the experiment on 786-0 renal was over 100 µM in each case. This compound gave a TGI in the experiment with NCI-H226 lung of over 100 µM.

As for `O=C(c1ccccc1)N1C(=S)N(c2ccc([N+](=O)[O-])cc2)C(=Nc2ccccc2)C1=Nc1ccccc1`, the TGI with MALME-3M melanoma, in the experiment with BT-549 breast, with HT29 colon, in the experiment on NCI-H460 lung, in the experiment with HOP-62 NSCLC and in the experiment on NCI-H23 lung was over 100 µM in each case. Moreover, the TGI in the experiment on 786-0 renal, with SK-MEL-2 melanoma and in the experiment on NCI-H226 lung was over 100 µM throughout.

On to `O=C1/C(=C/c2ccco2)NC(=S)N1CN1CCOCC1`, for which the TGI with HT29 colon, in the experiment on CCRF-CEM leukemia, in the experiment on HOP-62 NSCLC, with NCI-H23 lung, in the experiment with 786-0 renal and with SK-MEL-2 melanoma was over 100 µM in each case. This compound gave a TGI in the experiment with NCI-H226 lung of over 100 µM.
